Experimental data: US7306938B2, “High throughput screen for inhibitors of fatty acid biosynthesis in bacteria” (priority 1999, dated 2007)
Values after ≈ are worked out from the molar mass of the structure shown.

Experiments:
PyhfB promoter = assay: lacZ reporter assay of promoter induction, strain PY79(amy::PyhfB::lacZ, cat); type: cell-based, B. subtilis; conditions: various concentrations, 96-well microplate, 3 hours (FIG. 7)
Text: (§1) Clones containing the PyhfB, PyjaXY, and PylpC promoters have been described in GenBank, and the accession numbers for these clones are set forth in Table 2.
(§2) The reporter strains used in these assays were constructed as follows. PCR products containing the promoters were digested with EcoRI and BamHI, and cloned into the multiple cloning site of pDG268, which also had been digested with EcoRI and BamHI. The plasmid pDG268 is a derivative of pGD364 (See, Cutting and Van der Horn, Molecular Biological Methods for Bacillus, eds. C. R. Harwood and S. M. Cutting, 1990, John Wiley and Sons, NY, N.Y., pp. 52-54). […]
(§3) The reporter strains were incubated, separately, with triclosan or cerulenin at various concentrations, as shown on the X-axes depicted in FIGS. 7 and 8. Each strain and an antibacterial agent were incubated in a 96-well microplate for 3 hours. β-galactosidase activity was detected using the Tropix Galacton Star™ chemiluminescent substrate (3-chloro-5-(4-methoxyspiro{1,2-dioxetane-3,2′-(4′chloro)-tricyclo-[3.3.1.1^3,7]decan}-4-yl)phenyl-B-D-galactopyranoside) and the detection method described below. The fold induction of promoter activity was calculated as the level of activity in the samples containing the antibacterial agent divided by the level of activity in the samples that lacked the agent. […]

[1] = system: PyhfB, PyjaXY, PylpC, and PyydK promoters; assay: RNA (transcriptional) profiling of bacterial cells treated with FAB pathway inhibitors; type: cell-based, B. subtilis; conditions: cerulenin 0.5 or 5 μg/ml, triclosan 0.1 or 1 μg/ml; LB medium, 37° C., 10, 30, or 60 minutes
Text: Genetic Constructs: Conventional transcriptional profiling methods can be used to identify promoters that have increased activity in the presence of antibacterial agents such as cerulenin and triclosan, which are inhibitors of FAB.

[2] = system: B. subtilis reporter strains PY79(amy::PyhfB::lacZ, cat) and PY79(amy::PylpC::lacZ, cat); assay: Minimum inhibitory concentration (MIC) determination in 96-well microtiter plate, OD600 read; type: cell-based; conditions: Bacillus subtilis, 18 h, read-out: minimum inhibitory concentration (MIC)
Protocol: The minimum inhibitory concentrations (MIC) for cerulenin and triclosan were determined for each of the reporter strains. To determine the MIC, a compound of interest (e.g., cerulenin or triclosan) was placed in a 96-well microtiter plate such that the concentration of the compound varies in various wells of the plate (e.g., by using a series of 2-fold dilutions of the compound). Approximately 5,000 cells from a logarithmically-growing culture (e.g., the B. subtilis strain PY79) in Luria broth were added to each well (e.g., in a volume of 50-80 μl). The plate then was incubated at 37° C. for approximately 18 hours. The OD600 was then read to measure cell growth in each well of the plate. The lowest concentration of the compound that leads to complete killing of the culture (i.e., the concentration of compound for which the OD600 nm is equal to a control well that contains only media and the test compound) is deemed the MIC for the particular compound and bacterial strain. The MICs for cerulenin and triclosan were 12.5 μg/ml and 5 μg/ml, respectively, for both of the reporter strains. Such inhibitors can be used as lead compounds, which can subsequently be derivatized using standard medicinal chemistry techniques to produce antibacterial agents.

PylpC promoter = assay: lacZ reporter assay of promoter induction, strain PY79(amy::PylpC::lacZ, cat); type: cell-based, B. subtilis; conditions: various concentrations, 96-well microplate, 3 hours (FIG. 8)
Text: as §1, §2, §3

## Oc1cc(Cl)ccc1Oc1ccc(Cl)cc1Cl [triclosan]
PyhfB promoter
  activity of the PyhfB promoter (lacZ reporter, β-galactosidase chemiluminescence): increase the activity
[1]
  activity of the PyhfB, PyjaXY, PylpC, and PyydK promoters (RNA profiling): increase in activity
[2]
  MIC: 5 µg/mL (≈ 17.3 µM)
PylpC promoter
  activity of the PylpC promoter (lacZ reporter, β-galactosidase chemiluminescence): increase the activity

## C/C=C/C/C=C/CCC(=O)[C@H]1O[C@H]1C(N)=O [cerulenin, 2,3-Epoxy-4-oxo-7,1-dodecadienamide]
PyhfB promoter
  activity of the PyhfB promoter (lacZ reporter, β-galactosidase chemiluminescence): increase the activity
[1]
  activity of the PyhfB, PyjaXY, PylpC, and PyydK promoters (RNA profiling): increase in activity
[2]
  MIC: 12.5 µg/mL (≈ 56 µM)
PylpC promoter
  activity of the PylpC promoter (lacZ reporter, β-galactosidase chemiluminescence): increase the activity
